Laboratory results published in patent publication US8129380B2, “Phthalazinone derivatives” (AstraZeneca AB, priority 2008, dated 2012).

Tested on: HeLa cells
Experiment: Potentiation Factor (PF50): MMS growth inhibition, SRB assay
Type: cell-based
Conditions: MMS 0-10 μg/ml, ratio IC50 control / IC50 + inhibitor; for PF50 (30 nM): PARP inhibitor at 30 nM; for PF50 (200 nM): PARP inhibitor at 200 nM
Experimental: The Potentiation Factor (PF50) for compounds is calculated as a ratio of the IC50 of control cell growth divided by the IC50 of cell growth+PARP inhibitor. Growth inhibition curves for both control and compound treated cells are in the presence of the alkylating agent methyl methanesulfonate (MMS). The test compounds were used at a fixed concentration of 0.2 micromolar. The concentrations of MMS were over a range from 0 to 10 μg/ml.
2,000 HeLa cells were seeded into each well of a flat-bottomed 96-well microtiter plate in a volume of 100 μl and incubated for 6 hours at 37° C. Cells were either replaced with media alone or with media containing PARP inhibitor at a final concentration of 30 nM or 200 nM. […] Cells treated with PARP inhibitor alone were used to assess the growth inhibition by the PARP inhibitor.
Cells were left for a further 16 hours before replacing the media and allowing the cells to grow for a further 72 hours at 37° C. The media was then removed and the cells fixed with 100 μl of ice cold 10% (w/v) trichloroacetic acid. The plates were incubated at 4° C. for 20 minutes and then washed four times with water. Each well of cells was then stained with 100 μl of 0.4% (w/v) SRB in 1% acetic acid for 20 minutes before washing four times with 1% acetic acid. Plates were then dried for 2 hours at room temperature. The dye from the stained cells was solubilized by the addition of 100 μl of 10 mM Tris Base into each well.

SMILES	PF50 (30 nM)	PF50 (200 nM)
O=C(c1cc(Cc2n[nH]c(=O)c3ccccc23)ccc1F)N1CCC(OC(CF)CF)CC1 [Compound 29, 4-(3-(4-(1,3-difluoropropan-2-yloxy)piperidine-1-carbonyl)-4-fluorobenzyl)phthalazin-1(2H)-one]	25.9	–
O=C(c1cc(Cc2n[nH]c(=O)c3ccccc23)ccc1F)N1CCC(OC2CCCC2)CC1 [Compound 36, 4-(3-(4-(cyclopentyloxy)piperidine-1-carbonyl)-4-fluorobenzyl)phthalazin-1(2H)-one]	14.5	24.3
O=C(c1cccc(Cc2n[nH]c(=O)c3ccccc23)c1)N1CCC(OC2CCCC2)CC1 [Compound 37, 4-(3-(4-(cyclopentyloxy)piperidine-1-carbonyl)benzyl)phthalazin-1(2H)-one]	1.7	10.6
Cc1cccc(OC2CCN(C(=O)c3cc(Cc4n[nH]c(=O)c5ccccc45)ccc3F)CC2)n1 [Compound 39, 4-(4-fluoro-3-(4-(6-methylpyridin-2-yloxy)piperidine-1-carbonyl)benzyl)phthalazin-1(2H)-one]	1.4	–
O=C(c1cc(Cc2n[nH]c(=O)c3ccccc23)ccn1)N1CCC(OC2CCCC2)CC1 [Compound 40, 4-((2-(4-(cyclopentyloxy)piperidine-1-carbonyl)pyridin-4-yl)methyl)phthalazin-1(2H)-one]	2.2	19.8
COC1CCN(C(=O)c2cc(Cc3n[nH]c(=O)c4cccc(N)c34)ccc2F)CC1 [Compound 46, 5-amino-4-(4-fluoro-3-(4-methoxypiperidine-1-carbonyl)benzyl)phthalazin-1(2H)-one]	20.1	3.24
CCOC1CCN(C(=O)c2cccc(Cc3n[nH]c(=O)c4ccccc34)c2)CC1 [Compound 47a, 4-(3-(4-ethoxypiperidine-1-carbonyl)benzyl)phthalazin-1(2H)-one]	1.8	–
CCOC1CCN(C(=O)c2cc(Cc3n[nH]c(=O)c4c(C)[nH]c(C)c34)ccc2F)CC1 [Compound 54, 4-(3-(4-ethoxypiperidine-1-carbonyl)-4-fluorobenzyl)-5,7-dimethyl-2,6-dihydro-1H-pyrrolo[3,4-d]pyridazin-1-one]	1.3	–
COC1CCN(C(=O)c2cc(Cc3n[nH]c(=O)c4c(C)[nH]c(C)c34)ccc2F)CC1 [Compound 58, 4-(4-fluoro-3-(4-methoxypiperidine-1-carbonyl)benzyl)-5,7-dimethyl-2,6-dihydro-1H-pyrrolo[3,4-d]pyridazin-1-one]	1.0	–
COC1CCN(C(=O)c2cc(Cc3n[nH]c(=O)c4c(C)n(C)c(C)c34)ccc2F)CC1 [Compound 60, 4-(4-fluoro-3-(4-methoxypiperidine-1-carbonyl)benzyl)-5,6,7-trimethyl-2,6-dihydro-1H-pyrrolo[3,4-d]pyridazin-1-one]	1.0	–
COC1CCN(C(=O)c2cc(Cc3n[nH]c(=O)c4c[nH]c(C)c34)ccc2F)CC1 [Compound 63, 4-(4-fluoro-3-(4-methoxypiperidine-1-carbonyl)benzyl)-5-methyl-2,6-dihydro-1H-pyrrolo[3,4-d]pyridazin-1-one]	1.0	–
COC1CCN(C(=O)c2cc(Cc3n[nH]c(=O)c4cc(Cl)ccc34)ccc2F)CC1 [Compound 69, 7-chloro-4-(4-fluoro-3-(4-methoxypiperidine-1-carbonyl)benzyl)phthalazin-1(2H)-one]	1.7	–
CC(C)(C)OC1CCN(C(=O)c2cc(Cc3n[nH]c(=O)c4ccccc34)ccc2F)CC1 [Compound 70, 4-(3-(4-tert-butoxypiperidine-1-carbonyl)-4-fluorobenzyl)phthalazin-1(2H)-one]	32.1	19.5
CC(C)(C)OC1CCN(C(=O)c2cccc(Cc3n[nH]c(=O)c4ccccc34)c2)CC1 [Compound 71, 4-[[3-[4-[(2-methylpropan-2-yl)oxy]piperidine-1-carbonyl]phenyl]methyl]-2H-phthalazin-1-one]	4.0	8.9
CC(C)(C)OC1CCN(C(=O)c2cc(Cc3n[nH]c(=O)c4ccccc34)ccn2)CC1 [Compound 73, 4-((2-(4-tert-butoxypiperidine-1-carbonyl)pyridin-4-yl)methyl)phthalazin-1(2H)-one]	6.2	27.8
CC1(O)CCN(C(=O)c2cc(Cc3n[nH]c(=O)c4ccccc34)ccc2F)CC1 [Compound 74, 4-(4-fluoro-3-(4-hydroxy-4-methylpiperidine-1-carbonyl)benzyl)phthalazin-1(2H)-one]	1.5	–
O=C(COC1CCN(C(=O)c2cc(Cc3n[nH]c(=O)c4ccccc34)ccc2F)CC1)N1CCOCC1 [Compound 77, 4-(4-fluoro-3-(4-(2-morpholino-2-oxoethoxy)piperidine-1-carbonyl)benzyl)phthalazin-1(2H)-one]	3.1	–
O=C(c1cc(Cc2n[nH]c(=O)c3ccccc23)ccc1F)N1CCC(OCCN2CCOCC2)CC1 [Compound 80, 4-(4-fluoro-3-(4-(2-morpholinoethoxy)piperidine-1-carbonyl)benzyl)phthalazin-1(2H)-one]	1.5	–
CN(C)C(=O)COC1CCN(C(=O)c2cc(Cc3n[nH]c(=O)c4ccccc34)ccc2F)CC1 [Compound 83, 2-(1-(2-fluoro-5-((4-oxo-3,4-dihydrophthalazin-1-yl)methyl)benzoyl)piperidin-4-yloxy)-N,N-dimethylacetamide]	1.7	–
O=C(COC1CCN(C(=O)c2cc(Cc3n[nH]c(=O)c4ccccc34)ccc2F)CC1)N1CC(F)(F)C1 [Compound 89, 4-(3-(4-(2-(3,3-difluoroazetidin-1-yl)-2-oxoethoxy)piperidine-1-carbonyl)-4-fluorobenzyl)phthalazin-1(2H)-one]	1.9	–
O=C(O)COC1CCN(C(=O)c2cc(Cc3n[nH]c(=O)c4ccccc34)ccc2F)CC1 [Compound 90, 2-(1-(2-fluoro-5-((4-oxo-3,4-dihydrophthalazin-1-yl)methyl)benzoyl)piperidin-4-yloxy)acetic acid]	1.1	–
COC[C@H](C)OC1CCN(C(=O)c2cc(Cc3n[nH]c(=O)c4ccccc34)ccc2F)CC1 [Compound 93, (S)-4-(4-fluoro-3-(4-(1-methoxypropan-2-yloxy)piperidine-1-carbonyl)benzyl)phthalazin-1(2H)-one]	2.8	–
COC1CCN(C(=O)c2cc(Cc3n[nH]c(=O)c4ccc(N)cc34)ccc2F)CC1 [Compound 99, 6-amino-4-(4-fluoro-3-(4-methoxypiperidine-1-carbonyl)benzyl)phthalazin-1(2H)-one]	1.0	–
COC1CCN(C(=O)c2cc(Cc3n[nH]c(=O)c4cccc(Cl)c34)ccc2F)CC1 [Compound 104a, 5-chloro-4-(4-fluoro-3-(4-methoxypiperidine-1-carbonyl)benzyl)phthalazin-1(2H)-one]	1.3	–
CCOC1CCN(C(=O)c2cc(Cc3n[nH]c(=O)c4cccc(Cl)c34)ccc2F)CC1 [Compound 104b, 5-chloro-4-(3-(4-ethoxypiperidine-1-carbonyl)-4-fluorobenzyl)phthalazin-1(2H)-one]	2.2	–
O=C(COC1CCN(C(=O)c2cc(Cc3n[nH]c(=O)c4ccccc34)ccc2F)CC1)N1CCCC1 [Compound 107, 4-(4-fluoro-3-(4-(2-oxo-2-(pyrrolidin-1-yl)ethoxy)piperidine-1-carbonyl)benzyl)phthalazin-1(2H)-one]	1.7	–
O=C(COC1CCN(C(=O)c2cc(Cc3n[nH]c(=O)c4ccccc34)ccc2F)CC1)N1CCCCC1 [Compound 113, 4-(4-fluoro-3-(4-(2-oxo-2-(piperidin-1-yl)ethoxy)piperidine-1-carbonyl)benzyl)phthalazin-1 (2H)-one]	5.8	23.1
COC1CCN(C(=O)c2cccc(Cc3n[nH]c(=O)c4cccc(Cl)c34)c2)CC1 [Compound 119a, 5-chloro-4-(3-(4-methoxypiperidine-1-carbonyl)benzyl)phthalazin-1(2H)-one]	1.0	–
CCOC1CCN(C(=O)c2cccc(Cc3n[nH]c(=O)c4cccc(Cl)c34)c2)CC1 [Compound 119b, 5-chloro-4-(3-(4-ethoxypiperidine-1-carbonyl)benzyl)phthalazin-1(2H)-one]	1.2	–
COc1cccc2c(=O)[nH]nc(Cc3ccc(F)c(C(=O)N4CCC(OC)CC4)c3)c12 [Compound 126a, 4-(4-fluoro-3-(4-methoxypiperidine-1-carbonyl)benzyl)-5-methoxyphthalazin-1(2H)-one]	11.0	–
